We go through two compounds from patent US9387135B2, “Absorbent article” (UNICHARM CORPORATION, priority 2012, dated 2016).

A short description of series [1]: Surface tension of blood containing blood modifying agent, pendant drop method. As to conditions: 0.10 mass % in sheep defibrinated blood, 35 ° C. The procedure:
The surface tension of blood containing a blood modifying agent was measured by the pendant drop method, using a Drop Master500 contact angle meter by Kyowa Interface Science Co., Ltd. The surface tension was measured after adding a prescribed amount of blood modifying agent to sheep defibrinated blood, and thoroughly shaking. The measurement was accomplished automatically with a device, and the surface tension γ was determined by the following formula (see FIG. 13). γ=g×ρ×(de)^2×1/H The density ρ was measured at the temperatures listed in Table 5, according to JIS K 2249-1995, “Density test methods and density/mass/volume conversion tables”, “5. Vibrating density test method”. The measurement was accomplished using a DA-505 by Kyoto Electronics Co., Ltd.

On series [2], the source says:
The term “solubility” used herein in regard to water solubility includes cases where the sample completely dissolves in deionized water to form a homogeneous mixture, and cases where the sample is completely emulsified. Here, “completely” means that no mass of the sample remains in the deionized water.

In series [1], `CCCCCCCCCCCCOC(=O)CCCCCCCCCCC` [ELECTOL WE20, Ester of dodecanoic acid (C12) and dodecyl alcohol (C12)] yielded a Surface tension of 58.8 mN/m. The compound `CCCCCCCC(=O)OCC(COC(=O)CCCCCCC)OC(=O)CCCCCCC` [PANACET 800] showed a Water solubility in series [2] of under 0.05 g.
